The target in experiment [1] is T1, four-protein fatty acid uptake complex within the DRM-domain of CaCo2 plasma membranes (Homo sapiens, UniProt O60733).
T1 construct: the DRM domains of the plasma membrane were isolated from native CaCo2 cells; endogenous in cells; host or cells: CaCo2
T1 sequence (O60733 1-806): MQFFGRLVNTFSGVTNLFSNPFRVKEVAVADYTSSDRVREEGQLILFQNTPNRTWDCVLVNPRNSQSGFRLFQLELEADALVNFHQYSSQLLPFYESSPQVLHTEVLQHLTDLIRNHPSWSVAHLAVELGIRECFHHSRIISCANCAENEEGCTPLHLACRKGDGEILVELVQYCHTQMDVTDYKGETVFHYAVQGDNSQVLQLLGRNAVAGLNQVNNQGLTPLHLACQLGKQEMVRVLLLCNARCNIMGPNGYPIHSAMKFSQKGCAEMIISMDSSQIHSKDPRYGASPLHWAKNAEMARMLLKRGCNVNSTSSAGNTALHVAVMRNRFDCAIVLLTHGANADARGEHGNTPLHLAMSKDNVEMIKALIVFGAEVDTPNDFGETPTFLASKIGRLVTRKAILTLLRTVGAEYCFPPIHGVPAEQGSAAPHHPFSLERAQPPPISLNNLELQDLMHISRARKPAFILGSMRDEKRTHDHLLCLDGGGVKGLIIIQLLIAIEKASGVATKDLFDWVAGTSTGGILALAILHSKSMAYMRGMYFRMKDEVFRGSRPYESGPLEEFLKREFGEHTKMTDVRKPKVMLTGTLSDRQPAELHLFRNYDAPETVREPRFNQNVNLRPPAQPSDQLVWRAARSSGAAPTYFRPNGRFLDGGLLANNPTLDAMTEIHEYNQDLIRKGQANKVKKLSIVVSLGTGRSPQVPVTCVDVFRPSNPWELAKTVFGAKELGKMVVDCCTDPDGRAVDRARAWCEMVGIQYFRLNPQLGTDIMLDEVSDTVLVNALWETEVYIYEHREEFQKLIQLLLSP
Description: Disintegration of the fatty acid uptake complex in CaCo2 cells. Type of experiment: cell-based. Here is the method: All other experiments were assessed with CaCo2 cells as described in Ex. 1, mutatis mutandis.

Experiment [2] deals with T2, fatty acid uptake complex in the DRM-PM consisting of CD36, FABPPM, caveolin1, and iPLA2ß (Homo sapiens, UniProt O60733).
T2 construct: western blotting of DRM-PM isolated from these cells; endogenous in cells; host or cells: HepG2
T2 sequence (O60733 1-806): T1 sequence (O60733 1-806)
Description: Disassembly of the fatty acid uptake complex in DRM-PM of HepG2 cells (immunoprecipitation, western blotting). Type of experiment: cell-based. Here is the method: (§1) Detergent-resistant PM (DRM-PM) and non-DRM-PM fractions were isolated and characterized as previously described (Pohl J et al. Mol Biol Cell. 2005; 16: 24-31). Subcellular membrane fractions were prepared by centrifugation at 100,000 g for 1 h to obtain homogenate pellets. Nuclear extracts were obtained by centrifugation at 500 g for 5 min. Pellets were washed and resuspended in a buffer solution containing […] (pH 7.4), 100 mM NaCl, and 0.1 mM EDTA (Marzluff WF et al. Meth Cell Biol. 1987; 317-331)). The protein concentration was determined by the Bradford method (Bio- Rad, Munich, Germany).
Immunoblotting was performed according to a standard protocol as set out in Sun Q., et al. Biol Med (Maywood). 2012; 237: 178-185. […] To estimate the protein concentration a semi-quantitative densitometry was performed as described in Sun Q et al. (loc cit.). […]

The next experiment has as its target T3, iPLA2ß (Homo sapiens, UniProt O60733).
T3 construct: PLA2 activity in DRM-PM fractions isolated from HepG2 cells; endogenous in cells; host or cells: HepG2 (DRM-PM fraction)
T3 sequence (O60733 1-806): T1 sequence (O60733 1-806)
Description: PLA2 activity in DRM-PM fractions of HepG2 cells. Type of experiment: biochemical. The settings on record: DRM-PM fractions after 1-h treatment; dose-dependent. Here is the method:
as §1
PLA2 activity (µmoles LPC/mg protein/h) was determined by incubating samples with arachidonoyl thio-PC (62240; Cayman, Tallin, Estonia) for 1 h at 25°C in a Ca2+ -free buffer (Bhat MK et al. Biochim Biophys Act. 1993; 1166: 244-250). The reaction was terminated by adding 5,5-dithio-bis-2-nitrobenzoic acid and the absorbance at 405 nm was measured.

Another experiment has as its system cytosolic LPC. Description: Cytosolic LPC concentration in HepG2 cells. Type of experiment: cell-based, human.
A further experiment deals with HepG2 cells. Description: Fatty acid ([3H]oleate:albumin) influx in HepG2 cells. Type of experiment: cell-based, human.

Description for cytosolic LPC: LPC concentration in cytosolic supernatants was measured as previously described (Kishimoto T et al. Clin. Biochem. 2002; 35: 411-416).

For the substance “ursodeoxycholatelysophosphatidylethanolamide [UDCA-LPE]”, in experiment [1], the “minimal concentration for disintegration of the complex” value is recorded as 50 µM. The “exposure time for disintegration of the complex” value in experiment [1] (50 µM) was determined as 30 min. Besides, the “incubation time at which the fatty acid uptake complex began to disassemble” value in experiment [2] (50 µM) was ≥ 30 min. Besides, the “concentration at which the fatty acid uptake complex began to disassemble” value in experiment [2] (30 min of incubation) is reported as ≥ 50 µM. Further, the PLA2 activity result on iPLA2ß is recorded as “suppression of PLA2 activity”. Further, the IC50 (in general, the concentration that inhibits the measured activity by half) with cytosolic LPC (30 min treatment (Fig. 7), read-out: suppression of cytosolic LPC (IC50)) is 47 µM; in the experiment on HepG2 cells (1-h treatment with increasing concentrations (Fig. 2A), read-out: inhibition of fatty acid influx (IC50)), 47 µM. The “cytosolic LPC” value in the experiment with cytosolic LPC (UDCA-LPE 50 µM (Fig. 6), before treatment 8.0 ± 1.3) turned out to be 3.5 ± 0.2 µmol/mg protein. In addition, in the experiment with HepG2 cells (UDCA-LPE 100 µM (Fig. 1A)), the “time until fatty acid influx reached a minimum” value worked out at 60 min. Besides, the “time after withdrawal until original fatty acid influx rate was restored” value in the experiment on HepG2 cells (after UDCA-LPE withdrawal (Fig. 1A)) turned out to be 6 h. In the experiment on HepG2 cells (pretreatment UDCA-LPE 100 µM, 1 h or MAFP 150 µM, 1 h), the Km (commonly the substrate concentration at which the rate is half of its maximum) was determined as 250 nM. Further, in the experiment on HepG2 cells (pretreatment UDCA-LPE 100 µM, 1 h or MAFP 150 µM, 1 h, control 61.80), the “Vmax of [3H]oleate influx” value amounted to 28.43 nmol/mg protein/min.

The record behind these values is EP2929785A1, “A PLA inhibitor for inhibition of fat absorption” (PAT GmbH, priority 2014, dated 2015).
